For this data set the following is noted: Crystal; DTA.

Numbers after ± are expanded uncertainties.

In the case of `[Cl-].[Na+]` [sodium chloride], the Normal melting temperature is 801.1 ± 4 °C.

As to `[Cl-].[K+]` [potassium chloride], the Normal melting temperature came to 771.1 ± 4 °C.

The values above are taken from the NIST ThermoML archive (doi:10.1016/j.tca.2015.03.003).
